Laboratory results taken from US10278966B2, “Method of isolating quaternary phenanthroindolizidine alkaloids with G-quaduplex DNA binding activity from Tylophra atrofolliculata, compositions comprising them and their medical use” (Macau University of Science and Technology, priority 2016, dated 2019).
Values joined by “and” are separate entries in the source; they are usually repeats but may differ in a detail not shown here. Equal entries are not always repeated.

System: human telomeric DNA G-quadruplex
Assay: ESI-TOF-MS G-quadruplex binding assay
Settings: for Relative binding affinity (RBA): negative ESI-TOF-MS, 10 uM human telomeric DNA (27 nt) and 10 uM compound in 10 mM ammonium acetate, RBA = sum of complexes peaks areas / sum of G-quadruplex DNA peaks areas, means ± SD
Description: UV data were recorded using a Beckman DU 800 UV/vis spectrophotometer. HRESIMS were recorded on an Agilent 6230 ESI-TOF mass spectrometer. NMR spectra were obtained from Bruker Ascend™ 600 spectrometer equipped with a cyro platform. Silica gel (Devisil®, 40˜63 micron) was used for column chromatography. Silica gel plates (Merck, DC Kieselgel 60 F254) was used for TLC analysis. High-performance liquid chromatography (HPLC) was carried out on Agilent 1100, Agilent 1200 and Waters 1525-2489 apparatus with a semi-preparative column (Waters, XBridge® Prep C18, 5 μm, 250×10 mm). 27 nt human telomeric DNA (M monoisotopic=8492.4 Da, Invitrogen) was used for G-quadruplex binding assay, which was the same as the one applied in Bai, L. P. et al. PloS One 2013, 8, e53962. The G-quadruplex binding analysis was conducted on a Bruker maXis impact mass spectrometer equipped with a kdScientific syringe pump (Holliston, Mass., USA). Solvents for HPLC separation analysis were HPLC grade.
Electrospray ionization time-of-flight mass spectrometry (ESI-TOF-MS) experiments were conducted on a Bruker maXis impact mass spectrometer in the negative mode (Bai, L. P., Plos One, 2013, 8, e53962; Bai, L. P., Sci. Rep. 2014, 4, 6767). The ESI source parameters were set as follows: end plate offset voltage of 500 V, capillary voltage of 3000 V, nebulizer of 1.0 bar, dry gas flow of 4.0 L/min at 160° C. The flow rate of sample injection into the mass spectrometer was set at 3 uL/min by using a kdScientific syringe pump. Each mass spectrum was obtained by an average of at least 30 scans. The mixture of a final concentration of 10 uM nucleic acid, i.e. human telomeric DNA (27 nt) (M=8496.6 Da), and 10 uM phenanthroindolizidine alkaloid in 10 mM ammonium acetate was directly injected into mass spectrometer. Data were obtained from three parallel samples of nucleic acid-drug complex solution, and then analyzed with the software of Compass DataAnalysis.
ESI-TOF-MS was utilized to investigate the non-covalent binding capacity of compounds 1 to 7, i.e. compounds of Formulas (2) to (8) with human telomeric DNA G-quadruplex formed by the human telomeric sequence. The human telomeric sequence is known and disclosed in Bai, L. P. et al. PloS One 2013, 8, e53962. 13aS-tylophorine compound 8, i.e. compound of Formula (9):
[drawing 17] and reference G-quadruplex binder sanguinarine were used as control (Bai, L. P., Anal. Bioanal. Chem., 2008, 392, 709; Bai, L. P., Bioorg. Med. Chem., 2006, 14, 5439). […] The relative binding affinities (RBA) of tested compounds were calculated to evaluate their binding capacities to human telomeric DNA G-quadruplex using the equation: RBA=Σcomplexes peaks areas/ΣG-quadruplex DNA peaks areas

Row | Structure (SMILES) | Relative binding affinity (RBA) | potency in RBA value, times that of 3-demethyl analogue compound 2 (ratio of RBA values) | RBA value, times higher than that of 2-methoxylated/hydroxylated analogues compound 5 or 1 (ratio of RBA values)
1 | COc1cc2c3cc(OC)c(OC)cc3c3c[n+]4c(cc3c2cc1OC)CCC4 [compound 5, dehydrotylophorine] | 0.290 and 0.290 ± 0.017 | – | –
2 | COc1ccc2c(c1)c1cc(O)c(OC)cc1c1c[n+]3c(cc21)CCC3 [compound 6, an hydrodehydrotylophorinidine] | 0.437 and 0.437 ± 0.019 | at least 3 times | –
3 | COc1cc2c3c(c4cc(OC)c(OC)cc4c2cc1OC)CN1CCC[C@H]1C3 [compound 8, 13aS-tylophorine, reference compound] | 0.168 and 0.168 ± 0.007 | – | –
4 | COc1cc2c(cc1O)c1cc(O)ccc1c1cc3[n+](cc21)CCC3 [compound 2, 3-demethylanhydrodehydrotylophorinidine] | 0.122 and 0.122 ± 0.007 | – | –
5 | COc1cc2c(cc1O)c1cc3[n+](cc1c1cc(OC)c(OC)cc21)CCC3 [compound 1, 2-demethyldehydrotylophorine] | 0.265 and 0.265 ± 0.008 | – | –
6 | COc1ccc2c(c1)c1cc(OC)c(OC)cc1c1c[n+]3c(cc21)CCC3 [compound 7, tylophoridicine D] | 0.619 and 0.619 ± 0.016 | – | at least 2 times
7 | COc1cc2c(cc1O)c1cc(OC)c(OC)cc1c1cc3[n+](cc21)CCC3 [compound 4, 6-demethyldehydrotylophorine] | 0.238 and 0.238 ± 0.010 | – | –
8 | COc1cc2c(cc1O)c1cc(OC)c(O)cc1c1cc3[n+](cc21)CCC3 [compound 3, 2-hydroxylanhydrodehydrotylophorinidine] | 0.189 and 0.189 ± 0.002 | – | –
